Among the test systems are 786-0 renal; A549 NSCLC; HOP-62 NSCLC; HOP-92 NSCLC; NCI-H226 lung; OVCAR-4 ovarian; SF-268 CNS; U251 CNS; MDA-MB-435; SF-539 CNS.
Holding throughout (assay): NCI anticancer screen, dose series, 48 h

“And” between values parts separate entries of the source, which are not always exact repeats. Identical values can stand only once.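 Five concentrations, 48 hours, 96-well plates. GI50: concentration for 50% inhibition of growth. TGI: concentration producing complete growth inhibition.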

For the compound `N#CC(/C(=N/NC(=O)C(=O)NN)C(=O)Nc1nc([N+](=O)[O-])cs1)c1ccc(Cl)cc1` (configuration not stated), the TGI with 786-0 renal, with A549 NSCLC, with HOP-62 NSCLC, in the assay with HOP-92 NSCLC, with NCI-H226 lung and in the assay with OVCAR-4 ovarian was greater than 100 µM each time. Besides, the TGI in the assay with SF-268 CNS and with U251 CNS was greater than 100 µM each time.

Consider `CCOC(=O)/C(=N\OC)C(O)C(F)(F)F` (configuration not stated), for which the TGI in the assay with 786-0 renal, in the assay on A549 NSCLC, in the assay on HOP-62 NSCLC, in the assay with MDA-MB-435, in the assay with NCI-H226 lung and in the assay on SF-268 CNS was greater than 100 µM throughout. The TGI with SF-539 CNS and in the assay on U251 CNS was greater than 100 µM in each case.

As for `COC(=O)C1=C(C)NC(C)=C(C(=O)OC)C1/C=C(\Cl)c1ccc(Cl)c(Cl)c1`, the GI50 in the assay on 786-0 renal was 17 µM; in the assay on A549 NSCLC, 11.9 µM; in the assay with HOP-62 NSCLC, 16.3 µM; in the assay on MDA-MB-435, 15.1 µM; in the assay with NCI-H226 lung, 15.8 µM; with OVCAR-4 ovarian, 10.8 µM. Moreover, the GI50 in the assay with SF-268 CNS was 13.1 µM; in the assay with SF-539 CNS it was 17.1 µM; in the assay with U251 CNS it was 14.1 µM. Moreover, the TGI in the assay on 786-0 renal was found to be 30.8 µM; in the assay with A549 NSCLC, 24.4 µM; in the assay on HOP-62 NSCLC it was 29.8 µM; in the assay with MDA-MB-435, 32.1 µM; in the assay with NCI-H226 lung, 38.2 µM; in the assay with OVCAR-4 ovarian it was 26.6 µM. For the same compound, the results for the TGI in the assay on SF-268 CNS, in the assay with SF-539 CNS and in the assay on U251 CNS were 28.4 µM, 33 µM and 27.1 µM, respectively.

Take `CC(=O)Oc1cc(C)c2c(c1OC(C)=O)CC1(O2)[C@@H](C)CCC2[C@@]3(C)CC[C@H](OC(C)=O)C(C)(C)C3CC[C@]21C` (some centres not stated): the TGI came out at 7.46 µM in the assay on 786-0 renal; 33.2 µM with A549 NSCLC; 8.3 µM in the assay with HOP-62 NSCLC; 8.01 µM in the assay on HOP-92 NSCLC; 25.6 µM in the assay on NCI-H226 lung; 12.8 µM with SF-268 CNS. The TGI turned out to be 7.23 µM in the assay on SF-539 CNS and 14.4 µM in the assay with U251 CNS.

For the compound `COC(c1cccc(C(O)(C(F)(F)F)C(F)(F)F)c1)(C(F)(F)F)C(F)(F)F`, the TGI was 31.8 µM in the assay on 786-0 renal; 31.2 µM in the assay with A549 NSCLC; 33.7 µM in the assay with HOP-62 NSCLC; 37.8 µM in the assay with NCI-H226 lung; 30.4 µM with OVCAR-4 ovarian; 38.5 µM in the assay with SF-268 CNS. Also, the TGI stood at 33.3 µM with SF-539 CNS and 33.9 µM in the assay on U251 CNS.

With `Cn1cc(C2=C(c3cn(CCO)c4ccccc34)C(=O)NC2=O)c2ccccc21`, the GI50 in the assay with 786-0 renal was 5.01 µM; in the assay on A549 NSCLC it was 3.05 µM; in the assay with HOP-62 NSCLC it was 3.36 µM; in the assay on MDA-MB-435, 0.746 µM; in the assay with NCI-H226 lung it was 4.76 µM; with OVCAR-4 ovarian, 7.83 µM. Also, the values for the GI50 in the assay with SF-268 CNS, with SF-539 CNS and in the assay with U251 CNS were 4.19 µM, 1.4 µM and 1.98 µM, respectively. The TGI with 786-0 renal was greater than 25 µM; in the assay with A549 NSCLC it was greater than 25 µM; with HOP-62 NSCLC it was greater than 16.6 µM; with MDA-MB-435, greater than 25 µM; in the assay with NCI-H226 lung it was greater than 19.6 µM; with OVCAR-4 ovarian, greater than 25 µM. Also, the TGI with SF-268 CNS was 15.4 µM; in the assay with SF-539 CNS it was 8.9 µM; in the assay on U251 CNS, 13.7 µM.

Consider `COc1cc2c(cc1OCCCCCOc1cc3c(cc1OC)C(=O)N1CC(F)C[C@H]1C=N3)N=C[C@@H]1CC(F)CN1C2=O` (some centres not stated), for which the GI50 was less than 0.01 µM with 786-0 renal; 0.158 µM in the assay with A549 NSCLC; less than 0.01 µM in the assay on HOP-62 NSCLC; 0.169 µM in the assay with MDA-MB-435; 1.29 µM in the assay with OVCAR-4 ovarian; less than 0.01 µM with SF-268 CNS. Further, the figures for the GI50 in the assay on SF-539 CNS and in the assay on U251 CNS were 0.0161 µM and 0.0135 µM, respectively. Besides, the TGI in the assay with 786-0 renal is 0.16 µM; in the assay on A549 NSCLC it was 2.87 µM; in the assay on HOP-62 NSCLC, 0.222 µM; with MDA-MB-435, 0.761 µM; in the assay with OVCAR-4 ovarian it was 24.1 µM; with SF-268 CNS, 1.19 µM. The figures for the TGI with SF-539 CNS and in the assay on U251 CNS were 0.458 µM and 0.235 µM, respectively.

Consider `CSc1cccc(-n2c3nc(=O)n(C)c(=O)c-3nc3ccccc32)c1`, for which the TGI in the assay on 786-0 renal amounted to 33.4 µM; in the assay with A549 NSCLC, 16.2 µM; with HOP-62 NSCLC, 45.3 µM; in the assay with HOP-92 NSCLC it was 25.3 µM; with NCI-H226 lung it was 28.9 µM; in the assay with OVCAR-4 ovarian, 21.6 µM. In addition, the TGI came out at 61.9 µM with SF-268 CNS, 12.4 µM in the assay on SF-539 CNS and 23.3 µM in the assay on U251 CNS.

For `O=[N+]([O-])c1ccccc1N=Nc1c(O)[nH]c2ccc(Br)cc12`, the TGI in the assay on 786-0 renal was 40.4 µM; in the assay with A549 NSCLC, 21 µM; in the assay on HOP-62 NSCLC it was 28.3 µM; with MDA-MB-435, greater than 94.4 µM; in the assay with NCI-H226 lung, greater than 48.9 µM; in the assay with OVCAR-4 ovarian, greater than 59 µM. The TGI in the assay with SF-268 CNS is 51.9 µM; in the assay with SF-539 CNS it was greater than 100 µM; with U251 CNS, greater than 53.3 µM.

For the compound `c1ccc2c(c1)sc1c3cnccc3ccc21`, the TGI in the assay on 786-0 renal, in the assay on A549 NSCLC, in the assay on HOP-62 NSCLC, with MDA-MB-435, with NCI-H226 lung and in the assay with OVCAR-4 ovarian was greater than 100 µM each time. Moreover, the TGI in the assay on SF-268 CNS, in the assay on SF-539 CNS and in the assay on U251 CNS was greater than 100 µM each time.

As for `CC(=O)O[C@@]12CO[C@@H]1C[C@H](O)[C@@]1(C)C(=O)[C@H](O)C3=C(C)[C@@H](OC(=O)[C@H](O)[C@@H](NC(=O)OC(C)(C)C)c4ccccc4)C[C@@](O)([C@@H](OC(=O)c4ccccc4)[C@H]21)C3(C)C`, the GI50 was 0.0612 µM and 0.00824 µM in the assay on 786-0 renal; 0.00454 µM in the assay with A549 NSCLC; 0.0844 µM and 0.0428 µM in the assay on HOP-62 NSCLC; 0.00366 µM in the assay on NCI-H226 lung; 0.0677 µM and 0.0392 µM in the assay with SF-268 CNS; 0.00666 µM and 0.0056 µM with SF-539 CNS. For the same compound, in the assay on U251 CNS, the GI50 was 0.00244 µM and 0.00364 µM. Besides, the TGI in the assay on 786-0 renal is greater than 100 µM; in the assay with A549 NSCLC it was greater than 82.2 µM; in the assay on HOP-62 NSCLC, 3.78 µM; in the assay on HOP-92 NSCLC it was 59.4 µM; in the assay on NCI-H226 lung, 43.4 µM; in the assay with OVCAR-4 ovarian it was 76.1 µM. Besides, the TGI was 77.6 µM in the assay with SF-268 CNS; 0.0612 µM and 0.0251 µM with SF-539 CNS; 28.3 µM in the assay with U251 CNS.

The values are drawn from PubChem BioAssay (NCI).
